Test results published in patent US8952024B2, “Herbicidal pyrimidone derivatives” (E I du Pont de Nemours and Company, priority 2009, dated 2015).

Columns and labels:
Type in all cases: in vivo
[1] = system: barnyardgrass (Echinochloa crus-galli); assay: Test A pre-/postemergence plant response
How it was run: (§1)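 Greenhouse pots of loam/sand received directed preemergence soil sprays or postemergence sprays (plants 2–10 cm, 1–2 leaf stage), compounds formulated in non-phytotoxic solvent with surfactant. Injury was rated visually versus untreated controls after about ten days on a 0 (no effect) to 100 (complete control) scale.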

corn (Zea mays) = assay: Test A pre-/postemergence plant response
How it was run: as §1

[2] = system: giant foxtail (Setaria faberii); assay: Test A pre-/postemergence plant response
How it was run: as §1

[3] = system: large crabgrass (Digitaria sanguinalis); assay: Test A pre-/postemergence plant response
How it was run: as §1

[4] = system: morningglory (Ipomoea spp.); assay: Test A pre-/postemergence plant response
How it was run: as §1

[5] = system: pigweed (Amaranthus retroflexus); assay: Test A pre-/postemergence plant response
How it was run: as §1

[6] = system: velvetleaf (Abutilon theophrasti); assay: Test A pre-/postemergence plant response
How it was run: as §1

[7] = system: wheat (Triticum aestivum); assay: Test A pre-/postemergence plant response
How it was run: as §1

[8] = system: barnyardgrass (Echinochloa crus-galli); assay: Test B flooded paddy test; conditions: for Plant response rating, Flood, Barnyardgrass: 250 g ai/ha, flooded paddy test, visual rating on 0 to 100 scale (0 no effect, 100 complete control) after 13 to 15 days; for Plant response rating, Barnyardgrass: Flood (flooded paddy test), 13 to 15 days; for Barnyardgrass plant response rating: Flood, 31 g ai/ha, scale 0 to 100 (0 no effect, 100 complete control)
How it was run: (§2)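 Seedlings reaching 2 leaves are flooded 3 cm deep; test material is delivered to that water, which stays at the same depth. Plants remain in a greenhouse 13–15 days and are then scored by eye versus controls from 0 to 100.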

[9] = system: ducksalad (Heteranthera limosa); assay: Test B flooded paddy test; conditions: for Plant response rating, Flood, Ducksalad: 250 g ai/ha, flooded paddy test, visual rating on 0 to 100 scale (0 no effect, 100 complete control) after 13 to 15 days; for Plant response rating, Ducksalad: Flood (flooded paddy test), 13 to 15 days; for Ducksalad plant response rating: Flood, 31 g ai/ha, scale 0 to 100 (0 no effect, 100 complete control)
How it was run: as §2

rice (Oryza sativa) = assay: Test B flooded paddy test; conditions: for Plant response rating, Flood, Rice: 250 g ai/ha, flooded paddy test, visual rating on 0 to 100 scale (0 no effect, 100 complete control) after 13 to 15 days; for Plant response rating, Rice: Flood (flooded paddy test), 13 to 15 days; for Rice plant response rating: Flood, 31 g ai/ha, scale 0 to 100 (0 no effect, 100 complete control)
How it was run: as §2

[10] = system: umbrella sedge (Cyperus difformis); assay: Test B flooded paddy test; conditions: for Plant response rating, Flood, Sedge, Umbrella: 250 g ai/ha, flooded paddy test, visual rating on 0 to 100 scale (0 no effect, 100 complete control) after 13 to 15 days; for Plant response rating, Sedge, Umbrella: Flood (flooded paddy test), 13 to 15 days; for Sedge, Umbrella plant response rating: Flood, 31 g ai/ha, scale 0 to 100 (0 no effect, 100 complete control)
How it was run: as §2

[11] = Postemergence, 125 g ai/ha, 0 to 100 scale where 0 is no effect and 100 is complete control
[12] = Postemergence, 500 g ai/ha, 0 to 100 scale, 0 = no effect, 100 = complete control, approx. ten days
[13] = Preemergence, 125 g ai/ha, 0 to 100 scale, 0 = no effect, 100 = complete control
[14] = Preemergence, 500 g ai/ha, visual injury, 0 to 100 scale (0 no effect, 100 complete control), approx. ten days
[15] = 62 g ai/ha, scale of 0 to 100 where 0 is no effect and 100 is complete control
[16] = 125 g ai/ha, scale 0 to 100, 0 is no effect, 100 is complete control

SMILES: Cc1ccc(-c2ncc(C(=O)C3=C(O)CCCC3=O)c(=O)n2-c2ccccc2)cc1 [Compound 80]
- Plant response rating, Barnyardgrass [1, 11]: 30
- Plant response rating, Barnyardgrass [1, 12]: 80
- Plant response rating, Barnyardgrass [1, 13]: 0
- Plant response rating, Barnyardgrass [1, 14]: 10
- Plant response rating, Corn (corn (Zea mays); [11]): 0
- Plant response rating, Corn (corn (Zea mays); [12]): 50
- Plant response rating, Corn (corn (Zea mays); [13]): 0
- Plant response rating, Corn (corn (Zea mays); [14]): 0
- Plant response rating, Foxtail, Giant [2, 11]: 70
- Plant response rating, Foxtail, Giant [2, 12]: 90
- Plant response rating, Foxtail, Giant [2, 13]: 10
- Plant response rating, Foxtail, Giant [2, 14]: 60
- Plant response rating, Crabgrass, Large [3, 11]: 70
- Plant response rating, Crabgrass, Large [3, 12]: 90
- Plant response rating, Crabgrass, Large [3, 13]: 50
- Plant response rating, Crabgrass, Large [3, 14]: 90
- Plant response rating, Morningglory [4, 11]: 100
- Plant response rating, Morningglory [4, 12]: 100
- Plant response rating, Morningglory [4, 13]: 0
- Plant response rating, Morningglory [4, 14]: 30
- Plant response rating, Pigweed [5, 11]: 100
- Plant response rating, Pigweed [5, 12]: 100
- Plant response rating, Pigweed [5, 13]: 60
- Plant response rating, Pigweed [5, 14]: 90
- Plant response rating, Velvetleaf [6, 11]: 100
- Plant response rating, Velvetleaf [6, 12]: 100
- Plant response rating, Velvetleaf [6, 13]: 50
- Plant response rating, Velvetleaf [6, 14]: 100
- Plant response rating, Wheat [7, 11]: 0
- Plant response rating, Wheat [7, 12]: 0
- Plant response rating, Wheat [7, 13]: 0
- Plant response rating, Wheat [7, 14]: 0
- Plant response rating, Flood, Barnyardgrass [8]: 30
- Plant response rating, Barnyardgrass [8, 15]: 20
- Plant response rating, Barnyardgrass [8, 16]: 25
- Barnyardgrass plant response rating [8]: 15
- Plant response rating, Flood, Ducksalad [9]: 30
- Plant response rating, Ducksalad [9, 15]: 20
- Plant response rating, Ducksalad [9, 16]: 30
- Ducksalad plant response rating [9]: 0
- Plant response rating, Flood, Rice (rice (Oryza sativa)): 15
- Plant response rating, Rice (rice (Oryza sativa); [15]): 0
- Plant response rating, Rice (rice (Oryza sativa); [16]): 0
- Rice plant response rating (rice (Oryza sativa)): 0
- Plant response rating, Flood, Sedge, Umbrella [10]: 40
- Plant response rating, Sedge, Umbrella [10, 15]: 20
- Plant response rating, Sedge, Umbrella [10, 16]: 30
- Sedge, Umbrella plant response rating [10]: 0

SMILES: Cc1ccccc1-c1ncc(C(=O)C2=C(O)CCCC2=O)c(=O)n1-c1ccccc1 [Compound 82]
- Plant response rating, Barnyardgrass [1, 11]: 10
- Plant response rating, Barnyardgrass [1, 12]: 70
- Plant response rating, Barnyardgrass [1, 13]: 0
- Plant response rating, Barnyardgrass [1, 14]: 10
- Plant response rating, Corn (corn (Zea mays); [11]): 0
- Plant response rating, Corn (corn (Zea mays); [12]): 20
- Plant response rating, Corn (corn (Zea mays); [13]): 0
- Plant response rating, Corn (corn (Zea mays); [14]): 0
- Plant response rating, Foxtail, Giant [2, 11]: 10
- Plant response rating, Foxtail, Giant [2, 12]: 80
- Plant response rating, Foxtail, Giant [2, 13]: 10
- Plant response rating, Foxtail, Giant [2, 14]: 40
- Plant response rating, Crabgrass, Large [3, 11]: 40
- Plant response rating, Crabgrass, Large [3, 12]: 90
- Plant response rating, Crabgrass, Large [3, 14]: 100
- Plant response rating, Morningglory [4, 11]: 90
- Plant response rating, Morningglory [4, 12]: 100
- Plant response rating, Morningglory [4, 13]: 0
- Plant response rating, Morningglory [4, 14]: 60
- Plant response rating, Pigweed [5, 11]: 90
- Plant response rating, Pigweed [5, 12]: 100
- Plant response rating, Pigweed [5, 13]: 90
- Plant response rating, Pigweed [5, 14]: 100
- Plant response rating, Velvetleaf [6, 11]: 100
- Plant response rating, Velvetleaf [6, 12]: 100
- Plant response rating, Velvetleaf [6, 13]: 50
- Plant response rating, Velvetleaf [6, 14]: 90
- Plant response rating, Wheat [7, 11]: 0
- Plant response rating, Wheat [7, 12]: 0
- Plant response rating, Wheat [7, 13]: 0
- Plant response rating, Wheat [7, 14]: 0
- Plant response rating, Flood, Barnyardgrass [8]: 20
- Plant response rating, Barnyardgrass [8, 15]: 0
- Plant response rating, Barnyardgrass [8, 16]: 15
- Barnyardgrass plant response rating [8]: 0
- Plant response rating, Flood, Ducksalad [9]: 20
- Plant response rating, Ducksalad [9, 15]: 0
- Plant response rating, Ducksalad [9, 16]: 0
- Ducksalad plant response rating [9]: 0
- Plant response rating, Flood, Rice (rice (Oryza sativa)): 20
- Plant response rating, Rice (rice (Oryza sativa); [15]): 0
- Plant response rating, Rice (rice (Oryza sativa); [16]): 15
- Rice plant response rating (rice (Oryza sativa)): 0
- Plant response rating, Flood, Sedge, Umbrella [10]: 50
- Plant response rating, Sedge, Umbrella [10, 15]: 0
- Plant response rating, Sedge, Umbrella [10, 16]: 40
- Sedge, Umbrella plant response rating [10]: 0

SMILES: CC(C)CC(=O)OC1=C(C(=O)c2cnc(-c3ccccc3)n(-c3ccccc3)c2=O)C(=O)CCC1 [Compound 83]
- Plant response rating, Barnyardgrass [1, 11]: 70
- Plant response rating, Barnyardgrass [1, 12]: 90
- Plant response rating, Barnyardgrass [1, 13]: 30
- Plant response rating, Barnyardgrass [1, 14]: 90
- Plant response rating, Corn (corn (Zea mays); [11]): 0
- Plant response rating, Corn (corn (Zea mays); [12]): 30
- Plant response rating, Corn (corn (Zea mays); [13]): 0
- Plant response rating, Corn (corn (Zea mays); [14]): 20
- Plant response rating, Foxtail, Giant [2, 11]: 70
- Plant response rating, Foxtail, Giant [2, 12]: 90
- Plant response rating, Foxtail, Giant [2, 13]: 40
- Plant response rating, Foxtail, Giant [2, 14]: 90
- Plant response rating, Crabgrass, Large [3, 11]: 80
- Plant response rating, Crabgrass, Large [3, 12]: 90
- Plant response rating, Crabgrass, Large [3, 13]: 70
- Plant response rating, Crabgrass, Large [3, 14]: 100
- Plant response rating, Morningglory [4, 11]: 100
- Plant response rating, Morningglory [4, 12]: 100
- Plant response rating, Morningglory [4, 13]: 20
- Plant response rating, Morningglory [4, 14]: 60
- Plant response rating, Pigweed [5, 11]: 90
- Plant response rating, Pigweed [5, 12]: 100
- Plant response rating, Pigweed [5, 13]: 80
- Plant response rating, Pigweed [5, 14]: 100
- Plant response rating, Velvetleaf [6, 11]: 100
- Plant response rating, Velvetleaf [6, 12]: 100
- Plant response rating, Velvetleaf [6, 13]: 70
- Plant response rating, Velvetleaf [6, 14]: 100
- Plant response rating, Wheat [7, 11]: 0
- Plant response rating, Wheat [7, 12]: 0
- Plant response rating, Wheat [7, 13]: 0
- Plant response rating, Wheat [7, 14]: 30
- Plant response rating, Flood, Barnyardgrass [8]: 40
- Plant response rating, Barnyardgrass [8, 15]: 0
- Plant response rating, Barnyardgrass [8, 16]: 15
- Barnyardgrass plant response rating [8]: 0
- Plant response rating, Flood, Ducksalad [9]: 50
- Plant response rating, Ducksalad [9, 15]: 30
- Plant response rating, Ducksalad [9, 16]: 40
- Ducksalad plant response rating [9]: 20
- Plant response rating, Flood, Rice (rice (Oryza sativa)): 30
- Plant response rating, Rice (rice (Oryza sativa); [15]): 0
- Plant response rating, Rice (rice (Oryza sativa); [16]): 0
- Rice plant response rating (rice (Oryza sativa)): 0
- Plant response rating, Flood, Sedge, Umbrella [10]: 50
- Plant response rating, Sedge, Umbrella [10, 15]: 30
- Plant response rating, Sedge, Umbrella [10, 16]: 40
- Sedge, Umbrella plant response rating [10]: 0

SMILES: COCCn1c(-c2ccccc2)ncc(C(=O)C2=C(O)CCCC2=O)c1=O [Compound 85]
- Plant response rating, Barnyardgrass [1, 11]: 90
- Plant response rating, Barnyardgrass [1, 12]: 90
- Plant response rating, Barnyardgrass [1, 13]: 50
- Plant response rating, Barnyardgrass [1, 14]: 100
- Plant response rating, Corn (corn (Zea mays); [11]): 10
- Plant response rating, Corn (corn (Zea mays); [12]): 80
- Plant response rating, Corn (corn (Zea mays); [13]): 0
- Plant response rating, Corn (corn (Zea mays); [14]): 10
- Plant response rating, Foxtail, Giant [2, 11]: 70
- Plant response rating, Foxtail, Giant [2, 12]: 90
- Plant response rating, Foxtail, Giant [2, 14]: 90
- Plant response rating, Crabgrass, Large [3, 11]: 90
- Plant response rating, Crabgrass, Large [3, 12]: 90
- Plant response rating, Crabgrass, Large [3, 13]: 100
- Plant response rating, Crabgrass, Large [3, 14]: 100
- Plant response rating, Morningglory [4, 11]: 100
- Plant response rating, Morningglory [4, 12]: 100
- Plant response rating, Morningglory [4, 13]: 50
- Plant response rating, Morningglory [4, 14]: 80
- Plant response rating, Pigweed [5, 11]: 100
- Plant response rating, Pigweed [5, 12]: 100
- Plant response rating, Velvetleaf [6, 11]: 100
- Plant response rating, Velvetleaf [6, 12]: 100
- Plant response rating, Velvetleaf [6, 13]: 70
- Plant response rating, Wheat [7, 11]: 0
- Plant response rating, Wheat [7, 12]: 40
- Plant response rating, Wheat [7, 13]: 0
- Plant response rating, Wheat [7, 14]: 40
- Plant response rating, Flood, Barnyardgrass [8]: 65
- Plant response rating, Barnyardgrass [8, 15]: 25
- Plant response rating, Barnyardgrass [8, 16]: 55
- Barnyardgrass plant response rating [8]: 25
- Plant response rating, Flood, Ducksalad [9]: 65
- Plant response rating, Ducksalad [9, 15]: 50
- Plant response rating, Ducksalad [9, 16]: 60
- Ducksalad plant response rating [9]: 40
- Plant response rating, Flood, Rice (rice (Oryza sativa)): 20
- Plant response rating, Rice (rice (Oryza sativa); [15]): 0
- Plant response rating, Rice (rice (Oryza sativa); [16]): 15
- Rice plant response rating (rice (Oryza sativa)): 0
- Plant response rating, Flood, Sedge, Umbrella [10]: 80
- Plant response rating, Sedge, Umbrella [10, 15]: 75
- Plant response rating, Sedge, Umbrella [10, 16]: 80
- Sedge, Umbrella plant response rating [10]: 50
